Experimental data: patent publication US20230293599A1, “BACTERIAL COMPOSITIONS WITH ANTI-INFLAMMATORY ACTIVITY” (Universiteit Gent, priority 2020, published 2023)

Each compound was assayed on P. aeruginosa (assay: Biolog Phenotype Microarray PM1-2 growth on carbon sources). Conditions: not given.
Assay type: cell-based, Pseudomonas aeruginosa
Procedure: (§1) Using Phenotype Microarray (PM) panels (Biolog), the influence of 190 carbon sources on the growth of the potential probiotic species R. mucilaginosa, R. dentocariosa, R. gilardii, G. haemolysans, and common respiratory pathogens P. aeruginosa, and S. aureus was determined. PM1 and PM2 panels (Biolog) were inoculated according to the manufacturer's instructions. Growth curves were generated for 35 hours by measuring the absorbance at 590 nm using an EnVision (Perkin Elmer) plate reader.

Compound | AUC of growth curve, P. aeruginosa
O=C1O[C@@H]([C@H](O)CO)[C@H](O)[C@H]1O [D-Galactonic-Acid-γ-Lactone] | 397.9
O=C(O)[C@H](O)[C@@H](O)[C@H](O)[C@H](O)CO [D-Gluconic Acid] | 617.8

Same assay, conditions: 35 hours, absorbance 590 nm, n = 1; cells without values AUC < 50

Compound | AUC of growth curve, P. aeruginosa
C[N+](C)(C)CC(O)CC(=O)[O-] (racemic) [D,L-Carnitine] | 574.6
NCC(O)c1ccc(O)cc1 (racemic) [D,L-Octopamine] | 1142.2
NCCO [2-Aminoethanol] | 293.7
O=C[C@@H](O)[C@H](O[C@@H]1O[C@H](CO)[C@H](O)[C@H](O)[C@H]1O)[C@H](O)CO [3-0-β-D-Galacto-pyranosyl-D-Arabinose] | 188.8
CC(=O)C(C)O (centres unmarked) [3-Hydroxy 2-Butanone] | 183.2
O=C(O)c1ccc(O)cc1 [4-Hydroxy Benzoic Acid] | 909.3
CC(N)=O [Acetamide] | 123.0
CC(O)(CC(=O)O)C(=O)O (centres unmarked) [Citramalic Acid] | 183.9
C[C@@H](N)C(=O)O [D-Alanine] | 668.1
N[C@H](CC(=O)O)C(=O)O [D-Aspartic Acid] | 101.3
OC[C@H]1O[C@@H](O[C@H]2[C@H](O)[C@@H](O)[C@H](O)O[C@@H]2CO)[C@H](O)[C@@H](O)[C@@H]1O [D-Cellobiose] | 70.0
O=C[C@H](O)[C@@H](O)[C@H](O)[C@H](O)COP(=O)(O)O [D-Glucose-6-Phosphate] | 399.6
O=C[C@H](O)[C@@H](O)[C@H](O)[C@H](O)C(=O)O [D-Glucuronic Acid] | 543.2
COC(=O)[C@@H](C)O [D-Lactic Acid Methyl Ester] | 1081.7
OC[C@@H](O)[C@@H](O)[C@H](O)[C@H](O)CO [D-Mannitol] | 420.0
O=C(O)[C@@H](O)[C@@H](O)[C@H](O)[C@@H](O)C(=O)O [D-Saccharic Acid] | 108.8
OC[C@@H](O)[C@H](O)[C@H](O)[C@@H](O)CO [Dulcitol] | 72.0
C=C(CC(=O)O)C(=O)O [Itaconic Acid] | 790.8
NCCc1ccc(O)cc1 [Tyramine] | 684.5
O=C(O)Cc1cccc(O)c1 [m-Hydroxy Phenyl Acetic Acid] | 114.0
O=C(O)Cc1ccc(O)cc1 [p_Hydroxy Phenyl Acetic Acid] | 987.9

The compounds below were run on S. aureus (assay: not given). Conditions: not given.
Assay type: cell-based, Staphylococcus aureus
Procedure: as §1

Compound | AUC of growth curve, S. aureus
OC[C@H]1O[C@@H](O[C@@H]2[C@@H](CO)OC(O)(CO)[C@H]2O)[C@H](O)[C@@H](O)[C@H]1O (mixture of isomers) [Lactulose] | 656.2
NCC(O)c1ccc(O)cc1 (racemic) [D,L-Octopamine] | 166.2
CC(O)CO (centres unmarked) [1,2-Propanediol] | 150.0
Nc1ncnc2c1ncn2C1CC(O)C(CO)O1 (centres unmarked) [2-Deoxy-Adenosine] | 419.1
O=C[C@@H](O)[C@H](O[C@@H]1O[C@H](CO)[C@H](O)[C@H](O)[C@H]1O)[C@H](O)CO [3-0-β-D-Galacto-pyranosyl-D-Arabinose] | 446.3
CC(=O)C(C)O (centres unmarked) [3-Hydroxy 2-Butanone] | 255.6
O=C(O)c1ccc(O)cc1 [4-Hydroxy Benzoic Acid] | 140.6
CC(N)=O [Acetamide] | 93.1
N#C[C@H](O[C@@H]1O[C@H](CO[C@@H]2O[C@H](CO)[C@@H](O)[C@H](O)[C@H]2O)[C@@H](O)[C@H](O)[C@H]1O)c1ccccc1 [Amygdalin] | 254.6
CCCC(=O)O [Butyric Acid] | 1011.5
CCCCCC(=O)O [Caproic Acid] | 908.9
C/C(=C/C(=O)O)C(=O)O [Citraconic Acid] | 86.7
C[C@@H](N)C(=O)O [D-Alanine] | 464.9
OC[C@@H](O)C(O)[C@H](O)CO [D-Arabitol] | 832.3
N[C@H](CC(=O)O)C(=O)O [D-Aspartic Acid] | 242.2
O=C(O)[C@H](O)[C@@H](O)[C@H](O)[C@H](O)CO [D-Gluconic Acid] | 321.0
N[C@@H](C(=O)O)[C@@H](O)[C@H](O)[C@H](O)CO [D-Glucosaminic Acid] | 267.3
O=P(O)(O)O[C@H]1O[C@H](CO)[C@@H](O)[C@H](O)[C@H]1O [D-Glucose-1-Phosphate] | 189.0
O=C[C@H](O)[C@@H](O)[C@H](O)[C@H](O)COP(=O)(O)O [D-Glucose-6-Phosphate] | 168.0
O=C[C@H](O)[C@@H](O)[C@H](O)[C@H](O)C(=O)O [D-Glucuronic Acid] | 292.7
COC(=O)[C@@H](C)O [D-Lactic Acid Methyl Ester] | 517.2

Compound | AUC of growth curve, S. aureus
OC[C@@H](O)[C@@H](O)[C@H](O)[C@H](O)CO [D-Mannitol] | 884.6
OC[C@H]1O[C@H](OC[C@H]2O[C@H](O[C@]3(CO)O[C@H](CO)[C@@H](O)[C@@H]3O)[C@H](O)[C@@H](O)[C@@H]2O)[C@H](O)[C@@H](O)[C@H]1O [D-Rafinose] | 282.1
O=C1O[C@H](CO)[C@@H](O)[C@H]1O [D-Ribono-1,4-Lactone] | 100.2
O=C(O)[C@@H](O)[C@@H](O)[C@H](O)[C@@H](O)C(=O)O [D-Saccharic Acid] | 57.3
N[C@H](CO)C(=O)O [D-Serine] | 76.2
C[C@H](O)[C@@H](N)C(=O)O [D-Threonine] | 87.8
O=CO [Formic Acid] | 474.0
O=C(O)CO [Glycolic Acid] | 344.8
C[C@H](N)C(N)=O [L-Alaninamide] | 295.4
OC[C@H](O)C(O)[C@@H](O)CO [L-Arabitol] | 165.7
O=C[C@@H](O)[C@H](O)[C@@H](O)[C@@H](O)CO [L-Glucose] | 314.7
N[C@@H](CO)C(=O)O [L-Serine] | 558.2
O=C(O)[C@H](O)[C@@H](O)C(=O)O [L-Tartaric Acid] | 163.4
C[C@@H](O)[C@H](N)C(=O)O [L-Threonine] | 754.3
OC[C@@H](O)[C@@H](O[C@@H]1O[C@H](CO)[C@H](O)[C@H](O)[C@H]1O)[C@H](O)[C@@H](O)CO [Lactitol] | 338.8
OC[C@@H](O)[C@@H](O[C@H]1O[C@H](CO)[C@@H](O)[C@H](O)[C@H]1O)[C@H](O)[C@@H](O)CO [Maltitol] | 783.0
O=C(O)[C@H](O)[C@@H](O)[C@H](O)[C@H](O)CO[C@H]1O[C@H](CO)[C@H](O)[C@H](O)[C@H]1O [Melibionic Acid] | 270.3
COC(=O)CCC(=O)O [Mono Methyl Succinate] | 532.1
CC(=O)N[C@H]1C(O)O[C@H](CO)[C@H](O)[C@@H]1O (stereo partly drawn) [N-Acetyl-D-Galactosamine] | 59.3
CC(=O)N[C@@H](CO)[C@@H](O)[C@H](O)[C@H](O)CO [N-Acetyl-D-Glucosaminitol] | 381.9
CC(=O)N[C@H]1[C@H]([C@H](O)[C@H](O)CO)OC(O)(C(=O)O)C[C@@H]1O (some centres unmarked) [N-Acetyl-Neuraminic Acid] | 647.5

Compound | AUC of growth curve, S. aureus
O=C(O)C(=O)O [Oxalic Acid] | 463.7
O=C(O)CCCCCCCCC(=O)O [Sebacic Acid] | 252.2
OC[C@@]12OC[C@@H](O1)[C@@H](O)[C@@H](O)[C@@H]2O [Sedoheptulosan] | 277.8
OC[C@H]1O[C@H](OC[C@H]2O[C@H](OC[C@H]3O[C@H](O[C@]4(CO)O[C@H](CO)[C@@H](O)[C@@H]4O)[C@H](O)[C@@H](O)[C@@H]3O)[C@H](O)[C@@H](O)[C@H]2O)[C@H](O)[C@@H](O)[C@H]1O [Stachyose] | 324.4
Cc1cn([C@H]2C[C@H](O)[C@@H](CO)O2)c(=O)[nH]c1=O [Thymidine] | 735.9
OC[C@@H](O)[C@H](O)[C@@H](O)CO [Xylitol] | 280.8
O[C@H]1[C@H](O)[C@@H](O)[C@H](O)[C@@H](O)[C@H]1O [m-inositol] | 157.9
OC[C@H]1O[C@@H](O[C@H]2[C@H](O)[C@@H](O)[C@@H](O)O[C@@H]2CO)[C@H](O)[C@@H](O)[C@H]1O [α-D-Lactose] | 764.6
CCC(O)C(=O)O (stereo not drawn) [α-Hydroxy-Butyric Acid] | 567.8
O=C1CCC(C(=O)O)O1 (stereo not drawn) [α-Hydroxy-Glutaric Acid γ-Lactone] | 112.1
CCCC(=O)C(=O)O [α-Keto-Valeric Acid] | 734.6
CO[C@H]1O[C@H](CO)[C@@H](O)[C@H](O)[C@H]1O [α-Methyl-D-Glucoside] | 281.5
COC1OC(CO)C(O)C(O)C1O [α-Methyl-D-Mannoside] | 264.2
OC[C@H]1O[C@@H](O)[C@H](O)[C@H](O)[C@@H]1O [β-D-Allose] | 122.9
CC(O)CC(=O)O (stereo not drawn) [β-Hydroxy Butyric Acid] | 326.7
CO[C@@H]1O[C@H](CO)[C@@H](O)[C@H](O)[C@H]1O [β-Methyl-D-Galactoside] | 358.9
CO[C@@H]1O[C@H](C(=O)O)[C@@H](O)[C@H](O)[C@H]1O [β-Methyl-D-Glucuronic Acid] | 400.6
COC1OCC(O)C(O)C1O [β-Methyl-D-Xyloside] | 166.1
O=C(O)CCCO [γ-Hydroxy Butyric Acid] | 343.7
Tween 20 | 214.4
Tween 80 | 468.6

Same assay, conditions: 35 hours, absorbance 590 nm, n = 1; cells without values AUC < 50

Compound | AUC of growth curve, S. aureus
CC(=O)O [Acetic Acid] | 898.7
OC[C@H]1O[C@@H](O[C@H]2[C@H](O)[C@@H](O)[C@H](O)O[C@@H]2CO)[C@H](O)[C@@H](O)[C@@H]1O [D-Cellobiose] | 495.8
NCCCC[C@H](N)C(=O)O [L-Lysine] | 331.6
Chondroitin Sulfate C | 199.7
Gelatin | 52.4
Gentiobiose | 471.4
Glycogen | 197.7
Laminarin | 192.8
Mannan | 154.5
